The target in test [1] is Muscarinic acetylcholine receptor. Description: Displacement of [3H]3-quinuclidinyl benzilate ([3H]-QNB) from muscarinic acetylcholine receptor of rat cerebral cortex. The class given is tissue-based. A general note: In a radioligand displacement assay an active substance lowers the binding of a labelled ligand.
In test [2] the target is T1, Muscarinic acetylcholine receptor M3 (Cavia porcellus, UniProt Q8VH26). Description: Dissociation constant for complex with muscarinic acetylcholine receptor M3 of guinea pig ileum. In kind it is tissue-based.
T1 sequence (Q8VH26 whole entry): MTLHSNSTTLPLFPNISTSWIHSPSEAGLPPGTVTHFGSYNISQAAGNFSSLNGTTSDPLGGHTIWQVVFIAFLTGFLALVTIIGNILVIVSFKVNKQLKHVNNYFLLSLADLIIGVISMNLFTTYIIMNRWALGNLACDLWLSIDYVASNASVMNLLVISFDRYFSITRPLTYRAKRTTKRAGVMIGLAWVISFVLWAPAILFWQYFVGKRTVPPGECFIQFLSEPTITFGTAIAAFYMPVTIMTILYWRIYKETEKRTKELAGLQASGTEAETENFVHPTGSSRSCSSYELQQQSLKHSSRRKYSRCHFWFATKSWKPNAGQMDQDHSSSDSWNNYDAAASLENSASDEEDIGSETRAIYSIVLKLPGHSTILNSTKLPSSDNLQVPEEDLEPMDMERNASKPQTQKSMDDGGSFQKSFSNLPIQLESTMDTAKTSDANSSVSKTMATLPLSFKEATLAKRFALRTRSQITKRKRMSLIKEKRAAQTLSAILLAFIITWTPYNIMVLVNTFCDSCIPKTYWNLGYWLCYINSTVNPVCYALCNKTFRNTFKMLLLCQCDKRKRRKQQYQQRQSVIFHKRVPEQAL
The target of test [3] is Muscarinic acetylcholine receptor M3 (Cavia porcellus) (UniProt Q8VH26). Description: Maximum contractile response relative to carbachol (E max) in guinea pig ileum as muscarinic acetylcholine receptor M3 agonistic/antagonistic activity. The class given is functional, tissue-based.
Chain of Muscarinic acetylcholine receptor M3 (Cavia porcellus) (Q8VH26 1-587): as the sequence (Q8VH26 whole entry) above
Test [4] has as its target T1, Muscarinic acetylcholine receptor M3. Description: Muscarinic acetylcholine receptor M3 agonistic/antagonistic activity in guinea pig ileum. The class given is functional, tissue-based.
Test [5] deals with Muscarinic acetylcholine receptor M3 (Cavia porcellus) (UniProt Q8VH26). Description: Relative efficacies determined with oxotremorine as the reference in guinea pig ileum, as a measure of muscarinic acetylcholine receptor M3 agonistic activity. In kind it is functional, tissue-based.

We go through 15 compounds from ChEMBL document CHEMBL1125543, “Urea and 2-imidazolidone derivatives of the muscarinic agents oxotremorine and N-methyl-N-(1-methyl-4-pyrrolidino-2-butynyl)acetamide” (J Med Chem, 1992).

Turning to `CN1CCN(CC#CCN2CCCC2)C1=O`, the Ki (commonly the equilibrium dissociation constant of an inhibitor or competing ligand from its target) in test [1] turned out to be 1.6 µM. Besides, in test [2], the Kd – broadly, the free concentration of one partner at which half of the binding sites on the other are occupied at equilibrium, for simple one-to-one binding – came out at 2.9 µM. Further, the Emax in test [3] was determined as 1. In addition, the midpoint of the response in test [4], the EC50, lay at 0.1 µM. Moreover, the Efficacy in test [5] amounted to 0.21.

Regarding `CC(C#CCN1CCCC1)N1CCNC1=O` (centres undefined), in test [1], the Ki was determined as 0.64 µM. Moreover, the Kd in test [2] was found to be 0.48 µM. In addition, in test [3], the Emax was found to be 0. This compound also came in with an Efficacy in test [5] of 0.

The compound `CC(C#CCN1CCCC1)N1CCCC1=O` (centres undefined) returned an inhibition constant Ki in test [1] of 0.059 µM. In test [2], this compound showed a dissociation constant Kd of 0.091 µM. For the same compound, the Emax in test [3] amounted to 0. Besides, in test [5], the Efficacy is 0.

Compound `O=C1CCCN1CC#CCN1CCCC1` [OXOTREMORINE] had an inhibition constant (Ki) in test [1] of 0.23 µM. The Kd in test [2] is 1.2 µM. Besides, the Emax in test [3] amounted to 1. The EC50 – broadly, the concentration at which the effect is half-maximal – in test [4] came out at 0.05 µM. The Efficacy in test [5] turned out to be 1.

For the compound `CNC(=O)N(C)CC#CCN1CCCC1`, the Ki in test [1] was determined as 15.8 µM. The affinity in test [2], expressed as Kd, was 26.4 µM. In addition, the Emax in test [3] amounted to 1. This compound also yielded an EC50 in test [4] of 2.16 µM. In addition, the Efficacy in test [5] worked out at 0.53.

Compound `CC1CCN(CC#CCN2CCCC2)C1=O` (centres undefined) registered a dissociation constant Kd in test [2] of 11.5 µM. Besides, the EC50 in test [4] came to 0.5 µM.

On to `CC(C#CCN1CCCC1)N(C)C(N)=O` (centres undefined), for which the Ki in test [1] was 0.42 µM. Moreover, binding in test [2] was put at a Kd of 0.71 µM. In addition, in test [3], the Emax came out at 0. This compound showed an Efficacy in test [5] of 0.

Consider `CNC(=O)N(C)C(C)C#CCN1CCCC1` (centres undefined), for which, in test [1], the Ki came to 4.2 µM. The Kd in test [2] was 7.5 µM. This compound also came in with an Emax in test [3] of 1. For the same compound, it took 2.11 µM to reach a half-maximal effect in test [4] (EC50). The same compound came in with an Efficacy in test [5] of 0.18.

As for `CN(CC#CCN1CCCC1)C(N)=O`, in test [1], the inhibition constant (Ki) worked out at 10.7 µM. In test [2], this compound came in with a Kd of 49 µM. In test [3], this compound gave an Emax of 0.57. The compound further had an EC50 in test [4] of 44.9 µM. Also, the Efficacy in test [5] was found to be 0.08.

`CC(=O)N(C)C(C)C#CCN1CCCC1` (centres undefined): the affinity in test [2], expressed as Kd, was 0.24 µM. In test [3], this compound had an Emax of 0.83. The EC50 in test [4] came to 0.19 µM. Further, in test [5], the Efficacy was 0.013.

On to `O=C1CNC(=O)N1CC#CCN1CCCC1`, for which the Ki in test [1] was 17.2 µM. For the same compound, the Kd in test [2] came out at 100 µM. For the same compound, the Emax in test [3] is 0.37. Also, the EC50 in test [4] is 46.4 µM. In test [5], this compound displayed an Efficacy of 0.12.

As for `O=CN1CCN(CC#CCN2CCCC2)C1=O`, the Ki in test [1] stood at 26.4 µM. This compound also returned a Kd in test [2] of 20.9 µM. In test [3], this compound had an Emax of 1. Also, in test [4], the EC50 amounted to 8.6 µM. The same compound registered an Efficacy in test [5] of 0.14.

Regarding `CC(=O)N1CCN(CC#CCN2CCCC2)C1=O`, the Ki in test [1] stood at 27.4 µM. In test [3], this compound showed an Emax of 0. In test [4], the concentration giving a half-maximal response (EC50) is > 300 µM. Also, the Efficacy in test [5] came to 0.

`O=C1NCCN1CC#CCN1CCCC1`: the inhibition constant Ki in test [1] is 6.5 µM. In test [2], this compound registered a Kd of 30.3 µM. Also, the Emax in test [3] turned out to be 1. Moreover, the half-maximal effective concentration (EC50) in test [4] came out at 2.67 µM. The same compound gave an Efficacy in test [5] of 0.49.

In test [3], `C[N+](C)(C)CCOC(N)=O` gave an Emax of 1. Further, the Efficacy in test [5] turned out to be 5.71.
